Results reported in the supplement of paper PMC11208160.

Experiment: recombinant UMI read abundance after kanamycin selection (control-corrected) (log10(CPM+1)); higher = more efficient recombination; extreme values may be limits of the assay; sequences stand for … in AGTGCAGAGAAAATCGGCCAGTTTTCTCTGCCTGCAGTCCGCATGCCGTGGGACCCCTTGGGTTCTAACCTGTTGCCTAGATTTATGCAGCGGACTGCCTTTCTCCCAAAGTGATAAACCGG…AGGTTGGTTTCACT; site = the 11-nt donor
Outline: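 Under IPTG (0.07 mM) plus kanamycin, or without selection, Escherichia coli carrying a UMI-tagged donor and donor-binding-loop pair library and a target plasmid for the IS621 bridge recombinase were plated in two replicates. Recombinant UMIs were PCR-amplified across the donor–target junction and sequenced. Counts were converted to CPM, averaged over replicates, scaled by control-derived factors and reported as log10(CPM+1).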
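Also: IS621 bridge recombinase in Escherichia coli cells against a fixed T5 target plasmid.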

Question: For “GAAGATTCATGGACCGGTTTTCCCGGTAATCCGTATTTGCT (site GAAGATTCTAC)”, which “recombinant UMI read abundance (log10)” value is on record?
Answer: 0

Question: With “GAAGATTCATGGACCGGTTTTCCCGGTAATCCGTATTTGCT (site GAAGATTCTAG)” as the sequence, how does the “recombinant UMI read abundance (log10)” value read?
Answer: 2.54

Question: For “GAAGATTCATGGACCGGTTTTCCCGGTAATCCGTATTTGCT (site GAAGATTCTAT)”, which “recombinant UMI read abundance (log10)” value is on record?
Answer: 0

Question: With “GAAGATTCATGGACCGGTTTTCCCGGTAATCCGTATTTGTC (site GAAGATTCTAA)” as the sequence, how does the “recombinant UMI read abundance (log10)” value read?
Answer: 0.564

Question: For “GAAGATTCATGGACCGGTTTTCCCGGTAATCCGTATTTGTC (site GAAGATTCTCA)”, which “recombinant UMI read abundance (log10)” value is on record?
Answer: 0

Question: Which “recombinant UMI read abundance (log10)” value does the source give for “GAAGATTCATGGACCGGTTTTCCCGGTAATCCGTATTTGTC (site GAAGATTCTGA)” here?
Answer: 2.29

Question: With “GAAGATTCATGGACCGGTTTTCCCGGTAATCCGTATTTGTC (site GAAGATTCTTA)” as the sequence, how does the “recombinant UMI read abundance (log10)” value read?
Answer: 0.965

Question: For “GAAGCATCATGGACCGGTTTTCCCGGTAATCCGTATTTGCA (site GAAGCATCTTG)”, which “recombinant UMI read abundance (log10)” value is on record?
Answer: 2.67

Question: For “GAAGCGTCATGGACCGGTTTTCCCGGTAATCCGTATTTGTA (site GAAGCGTCTTA)”, which “recombinant UMI read abundance (log10)” value is on record?
Answer: 2.88

Question: For “GAAGGGTCATGGACCGGTTTTCCCGGTAATCCGTATTTGTT (site GAAGGGTCTAA)”, which “recombinant UMI read abundance (log10)” value is on record?
Answer: 2.74

Question: For “GAAGTAGCATGGACCGGTTTTCCCGGTAATCCGTATTTGGG (site GAAGTAGCTCC)”, which “recombinant UMI read abundance (log10)” value is on record?
Answer: 0.618

Question: Which “recombinant UMI read abundance (log10)” value does the source give for “GAAGTCGCATGGACCGGTTTTCCCGGTAATCCGTATTTGCG (site GAAGTCGCTCG)” here?
Answer: 0.562

Question: For “GAAGTCGCATGGACCGGTTTTCCCGGTAATCCGTATTTGCG (site GCAGTCGCTCG)”, which “recombinant UMI read abundance (log10)” value is on record?
Answer: 0.0126

Question: For “GAAGTCGCATGGACCGGTTTTCCCGGTAATCCGTATTTGCG (site GGAGTCGCTCG)”, which “recombinant UMI read abundance (log10)” value is on record?
Answer: 0.0249

Question: With “GAAGTCGCATGGACCGGTTTTCCCGGTAATCCGTATTTGCG (site GTAGTCGCTCG)” as the sequence, how does the “recombinant UMI read abundance (log10)” value read?
Answer: 0.023

Question: With “GAAGTTTCATGGACCGGTTTTCCCGGTAATCCGTATTTGTT (site GAAGATTCTAA)” as the sequence, how does the “recombinant UMI read abundance (log10)” value read?
Answer: 0

Question: For “GAAGTTTCATGGACCGGTTTTCCCGGTAATCCGTATTTGTT (site GAAGCTTCTAA)”, which “recombinant UMI read abundance (log10)” value is on record?
Answer: 0.43

Question: Which “recombinant UMI read abundance (log10)” value does the source give for “GAAGTTTCATGGACCGGTTTTCCCGGTAATCCGTATTTGTT (site GAAGGTTCTAA)” here?
Answer: 0

Question: Which “recombinant UMI read abundance (log10)” value does the source give for “GAAGTTTCATGGACCGGTTTTCCCGGTAATCCGTATTTGTT (site GAAGTTTCTAA)” here?
Answer: 1.76

Question: Which “recombinant UMI read abundance (log10)” value does the source give for “GAATACTCATGGACCGGTTTTCCCGGTAATCCGTATTTGAT (site GAATACTCTAT)” here?
Answer: 2.8

Question: Which “recombinant UMI read abundance (log10)” value does the source give for “GAATATTCATGGACCGGTTTTCCCGGTAATCCGTATTTGTT (site GAAAATTCTAA)” here?
Answer: 0

Question: With “GAATATTCATGGACCGGTTTTCCCGGTAATCCGTATTTGTT (site GAACATTCTAA)” as the sequence, how does the “recombinant UMI read abundance (log10)” value read?
Answer: 0

Question: For “GAATATTCATGGACCGGTTTTCCCGGTAATCCGTATTTGTT (site GAAGATTCTAA)”, which “recombinant UMI read abundance (log10)” value is on record?
Answer: 0

Question: Which “recombinant UMI read abundance (log10)” value does the source give for “GAATATTCATGGACCGGTTTTCCCGGTAATCCGTATTTGTT (site GAATATTCTAA)” here?
Answer: 0.948

Question: With “GAATCGCCATGGACCGGTTTTCCCGGTAATCCGTATTTGCA (site GAATAGCCTTG)” as the sequence, how does the “recombinant UMI read abundance (log10)” value read?
Answer: 0.613

Question: For “GAATCGCCATGGACCGGTTTTCCCGGTAATCCGTATTTGCA (site GAATCGCCTTG)”, which “recombinant UMI read abundance (log10)” value is on record?
Answer: 0.687

Question: For “GAATCGCCATGGACCGGTTTTCCCGGTAATCCGTATTTGCA (site GAATGGCCTTG)”, which “recombinant UMI read abundance (log10)” value is on record?
Answer: 0.345

Question: For “GAATCGCCATGGACCGGTTTTCCCGGTAATCCGTATTTGCA (site GAATTGCCTTG)”, which “recombinant UMI read abundance (log10)” value is on record?
Answer: 0

Question: Which “recombinant UMI read abundance (log10)” value does the source give for “GAATGACCATGGACCGGTTTTCCCGGTAATCCGTATTTGCA (site GAATGACCTTG)” here?
Answer: 1.13

Question: With “GAATGACCATGGACCGGTTTTCCCGGTAATCCGTATTTGCA (site GAATGCCCTTG)” as the sequence, how does the “recombinant UMI read abundance (log10)” value read?
Answer: 0

Question: With “GAATGACCATGGACCGGTTTTCCCGGTAATCCGTATTTGCA (site GAATGGCCTTG)” as the sequence, how does the “recombinant UMI read abundance (log10)” value read?
Answer: 1.02

Question: For “GAATGACCATGGACCGGTTTTCCCGGTAATCCGTATTTGCA (site GAATGTCCTTG)”, which “recombinant UMI read abundance (log10)” value is on record?
Answer: 0

Question: Which “recombinant UMI read abundance (log10)” value does the source give for “GAATGCTCATGGACCGGTTTTCCCGGTAATCCGTATTTGAA (site AAATGCTCTTT)” here?
Answer: 0.536

Question: With “GAATGCTCATGGACCGGTTTTCCCGGTAATCCGTATTTGAA (site CAATGCTCTTT)” as the sequence, how does the “recombinant UMI read abundance (log10)” value read?
Answer: 1.08

Question: With “GAATGCTCATGGACCGGTTTTCCCGGTAATCCGTATTTGAA (site GAATGCTCTTT)” as the sequence, how does the “recombinant UMI read abundance (log10)” value read?
Answer: 2.05

Question: For “GAATGCTCATGGACCGGTTTTCCCGGTAATCCGTATTTGAA (site TAATGCTCTTT)”, which “recombinant UMI read abundance (log10)” value is on record?
Answer: 0.684

Question: For “GAATGGCCATGGACCGGTTTTCCCGGTAATCCGTATTTGCA (site AAATGGCCTTG)”, which “recombinant UMI read abundance (log10)” value is on record?
Answer: 0

Question: Which “recombinant UMI read abundance (log10)” value does the source give for “GAATGGCCATGGACCGGTTTTCCCGGTAATCCGTATTTGCA (site CAATGGCCTTG)” here?
Answer: 0

Question: Which “recombinant UMI read abundance (log10)” value does the source give for “GAATGGCCATGGACCGGTTTTCCCGGTAATCCGTATTTGCA (site GAAAGGCCTTG)” here?
Answer: 0

Question: With “GAATGGCCATGGACCGGTTTTCCCGGTAATCCGTATTTGCA (site GAACGGCCTTG)” as the sequence, how does the “recombinant UMI read abundance (log10)” value read?
Answer: 0

Question: Which “recombinant UMI read abundance (log10)” value does the source give for “GAATGGCCATGGACCGGTTTTCCCGGTAATCCGTATTTGCA (site GAAGGGCCTTG)” here?
Answer: 0

Question: For “GAATGGCCATGGACCGGTTTTCCCGGTAATCCGTATTTGCA (site GAATAGCCTTG)”, which “recombinant UMI read abundance (log10)” value is on record?
Answer: 0.926

Question: With “GAATGGCCATGGACCGGTTTTCCCGGTAATCCGTATTTGCA (site GAATCGCCTTG)” as the sequence, how does the “recombinant UMI read abundance (log10)” value read?
Answer: 0.248

Question: Which “recombinant UMI read abundance (log10)” value does the source give for “GAATGGCCATGGACCGGTTTTCCCGGTAATCCGTATTTGCA (site GAATGACCTTG)” here?
Answer: 0

Question: Which “recombinant UMI read abundance (log10)” value does the source give for “GAATGGCCATGGACCGGTTTTCCCGGTAATCCGTATTTGCA (site GAATGCCCTTG)” here?
Answer: 0.0091

Question: With “GAATGGCCATGGACCGGTTTTCCCGGTAATCCGTATTTGCA (site GAATGGACTTG)” as the sequence, how does the “recombinant UMI read abundance (log10)” value read?
Answer: 0.018

Question: For “GAATGGCCATGGACCGGTTTTCCCGGTAATCCGTATTTGCA (site GAATGGCCTAG)”, which “recombinant UMI read abundance (log10)” value is on record?
Answer: 0

Question: With “GAATGGCCATGGACCGGTTTTCCCGGTAATCCGTATTTGCA (site GAATGGCCTCG)” as the sequence, how does the “recombinant UMI read abundance (log10)” value read?
Answer: 0.0219

Question: Which “recombinant UMI read abundance (log10)” value does the source give for “GAATGGCCATGGACCGGTTTTCCCGGTAATCCGTATTTGCA (site GAATGGCCTGG)” here?
Answer: 0

Question: With “GAATGGCCATGGACCGGTTTTCCCGGTAATCCGTATTTGCA (site GAATGGCCTTA)” as the sequence, how does the “recombinant UMI read abundance (log10)” value read?
Answer: 0.0192

Question: For “GAATGGCCATGGACCGGTTTTCCCGGTAATCCGTATTTGCA (site GAATGGCCTTC)”, which “recombinant UMI read abundance (log10)” value is on record?
Answer: 0.0145

Question: For “GAATGGCCATGGACCGGTTTTCCCGGTAATCCGTATTTGCA (site GAATGGCCTTG)”, which “recombinant UMI read abundance (log10)” value is on record?
Answer: 0

Question: For “GAATGGCCATGGACCGGTTTTCCCGGTAATCCGTATTTGCA (site GAATGGCCTTT)”, which “recombinant UMI read abundance (log10)” value is on record?
Answer: 0.0193

Question: For “GAATGGCCATGGACCGGTTTTCCCGGTAATCCGTATTTGCA (site GAATGGGCTTG)”, which “recombinant UMI read abundance (log10)” value is on record?
Answer: 0.00704

Question: With “GAATGGCCATGGACCGGTTTTCCCGGTAATCCGTATTTGCA (site GAATGGTCTTG)” as the sequence, how does the “recombinant UMI read abundance (log10)” value read?
Answer: 0.0295

Question: Which “recombinant UMI read abundance (log10)” value does the source give for “GAATGGCCATGGACCGGTTTTCCCGGTAATCCGTATTTGCA (site GAATGTCCTTG)” here?
Answer: 0

Question: With “GAATGGCCATGGACCGGTTTTCCCGGTAATCCGTATTTGCA (site GAATTGCCTTG)” as the sequence, how does the “recombinant UMI read abundance (log10)” value read?
Answer: 0
